Entries after “also recorded” stand apart in the source; their conditions may differ.
Legend:
[1] = tested on: neutrophils and platelets; experiment: Ex vivo neutrophil-platelet aggregate (NPA) formation, FACS; assay type: cell-based, mouse
Experimental: Neutrophil-platelet aggregation. Mouse and human neutrophils were isolated and purified as previously described (31). Whole blood was collected into ACD tubes and platelet-rich plasma was isolated by centrifuging twice at 100×g for 5 min. Neutrophils (0.5×106) and platelets (5×106) were incubated for 2 h at 37° C. with LPS in 1 ml Tyrode's buffer (Sigma) supplemented with 1% BSA. After incubation, mouse neutrophils and platelets were stained with CD11b, CD41, and Ly6G and analyzed by flow cytometry to detect NPAs. Human neutrophils and platelets were stained with CD66, CD16, and CD41. NPA % was calculated as the percentage of CD66+, CD16+ and CD41 triple-positive cells (NPAs) among all CD66+ and CD16+ cells.
Flow cytometry. Murine neutrophils and platelets were incubated as described above. Cells were then harvested, washed with ice-cold PBS, and stained with APC0-CD11b (eBioscience), PE-CY7-Ly6G (BD Bioscience), FITC-CD41 (eBioscience), and […] to detect leukocyte and platelet antigens. Samples were examined with a FACSCanto II™ flow cytometer (Becton Dickinson). Neutrophils were gated by their forward- and side-scatter characteristics and by their Ly-6G+/CD11b+ (neutrophil) expression pattern (30). Platelets were detected by CD41 staining NPAs were Ly-6G+CD41+. All data were analyzed using FlowJo™ software (TreeStar; FlowJo LLC).

[2] = tested on: PtdIns(3,4,5)P3 signaling; experiment: PtdIns(3,4,5)P3 signaling (phospho-Akt western blot) in mouse neutrophils; assay type: cell-based
Experimental: Mice were treated with TNP for 10 days (20 mg/kg body weight, once a day). Bone marrow neutrophils were isolated and lysed. Total/phosphorylated Akt in cell lysates was detected by western blotting. Relative amounts of phosphorylated Akt were quantified with NIH ImageJ™ software. Data shown are means±SEM of four experiments. *p<0.05 vs. neutrophils isolated from mice treated with DMSO alone

E. coli = experiment: E. coli-induced bacterial pneumonia in mice; assay type: in vivo, mouse
Experimental: Bacteria or LPS-induced acute pneumonia. After anesthesia with ketamine hydrochloride (100 mg/kg intraperitoneally (i.p.)) and xylazine (10 mg/kg i.p.), mouse tracheas were surgically exposed and a total volume of 40 μl of saline, a dose of 2×10^6 cfu of E. coli (strain 19138; American Type Culture Collection), a dose of 5×10^8 cfu of Stapyhlococcus aureus (strain 10390; American Type Culture Collection), or the indicated amount of LPS (LPS from E. coli O111:B4 or LPS from E. coli O157:H7; Sigma-Aldrich was instilled intratracheally via an angiocatheter inserted through the trachea and into the left bronchus. Colloidal carbon (1%) was included in the instillate to indicate deposition. After surgery and wound closure, mice were suspended by their front legs to help deliver the instillate deep into the left lobe before being placed back into the cage with soft and warm bedding for recovery. Mice were euthanized by CO2 at each time point. For polyP treatment, Medium Chain Polyphosphate (p100) (Kerafast Inc) was injected intraperitoneally (50 μg/g body weight) 10 min after the instillation of LPS. For treatment with IP6K1 inhibitor TNP (N2-(m-(trifluoromethyl)benzyl) N6-(p-nitrobenzyl)purine), mice were injected intraperitoneally with TNP once a day (20 mg/kg body weight) for 10 days before the induction of lung inflammation. TNP (Tocris Bioscience) was dissolved in DMSO/Tween80/water (1/1/8) at a concentration of 2 mg/ml and was injected directly without dilution.
Neutrophil accumulation. WT and Ip6k1-KO mice were anesthetized and instilled with bacteria or LPS as described above. After 24 h, mice were euthanized by CO2. The chest cavity was opened and a catheter was tied to the trachea. Bronchoalveolar lavage (BAL) was performed (1 mL PBS/15 mM EDTA×10) in each group. The BAL fluid (BALF) was centrifuged at 450×g for 10 min. The total number of cells in the BALF was counted by hemocytometry. Differential cell counts were conducted on cytospin preparations stained with a modified Wright-Giemsa stain (Volu-Sol, Inc.). Neutrophils were identified by their lobular or segmented nuclei. The percentage of neutrophils in the whole population (% PMN) was determined accordingly. Total numbers of neutrophils (#PMN) recruited was calculated as follows: [#PMN]=[cell density]×volume×[% PMN]. Emigrated neutrophils in the alveolar air spaces were also quantified by morphometric analysis of tissue sections. Emigrated neutrophils in lung sections (5 mice/group) 24 h after infection were quantified using standard point-counting morphometry (7). Briefly, mice were euthanized and their hearts tied off to maintain pulmonary blood volume. Lungs were then excised and fixed by intratracheal instillation of Bouin's solution at a pressure of 23 cm H2O and embedded in paraffin. Five to 6 μm-thick sections were cut and stained with hematoxylin and eosin (H&E). Neutrophils could be easily recognized by their lobular or segmented nuclei under high magnification. A counting grid (10×10, covering 70,000 μm2 of the magnified field) was reflected onto the field of view using a drawing tube. Randomly selected fields of pneumonic peripheral lung largely free of non-capillary blood vessels and bronchioles or larger airways were examined. At least three grids (300 points) were counted for each lung. The relative volumes of the parenchymal regions occupied by emigrated neutrophils were calculated by investigators blinded to the identities of the mice and were expressed as a percentage of the total parenchymal region volume (including both tissue and air spaces).
BALF total protein levels and cytokine/chemokine levels. BALF samples were obtained from mice 24 h after E. coli challenge. BAL was performed with 1 ml cold PBS/15 mM EDTA flushed in and out three times. Protein concentrations were measured in BALF using the Bio-Rad protein assay reagent. A standard curve was constructed using BSA. […]

[3] = tested on: PtdIns(3,4,5)P3 signaling; experiment: PtdIns(3,4,5)P3 signaling in human neutrophils; assay type: cell-based; conditions: human neutrophils treated with TNP
platelets = experiment: PolyP levels in platelets isolated from TNP-treated mice; assay type: in vivo, mouse; conditions: platelets from mice treated with TNP 20 mg/kg once a day for 10 days, vs DMSO-treated controls
Experimental: (§1) FIG. 6A: PolyP levels in platelets. Mice were treated with TNP or DMSO alone for 10 days (20 mg/kg body weight, once a day). The experiment was repeated three times and the data were pooled and analyzed together. Data shown are means±SEM (n=7 mice per group). FIG. 6B: LPS-induced polyP secretion in neutrophil-platelet co-cultures. Neutrophils (5×10^6) isolated from DMSO (N-DMSO) or TNP (N-TNP)-treated mice and platelets (1×10^9) isolated from DMSO (P-DMSO) or TNP (P-TNP)-treated mice were incubated in the presence of LPS (5 μg/mL) for 2 h at 37° C. Data shown are means±SEM of four experiments. FIG. 6C: LPS-induced NPA formation. Neutrophils and platelets were isolated from DMSO (untreated) and TNP-treated mice and incubated with LPS (1 μg/mL) for 2 h at 37° C. […] NPA formation was analyzed at 24 hr after the LPS instillation. […] FIG. 6H: Recruited neutrophils in alveolar spaces were quantified as volume fraction of the alveolar space using standard point-counting morphometry. […] FIG. 6I: Pulmonary edema formation was quantified as the percentage of edema area in the total parenchymal region using. […] FIG. 6J: Lung vascular permeability was evaluated by BALF total protein level. […] FIG. 6K: Lung wet weight-to-dry weight ratio was measured at 24 hr after E. coli instillation. […] NPA % was calculated as the percentage of CD66+, CD16+ and CD41 triple-positive cells (NPAs) among all CD66+ and CD16+ cells. […]

human platelets = experiment: PolyP levels in human platelets; assay type: cell-based; conditions: TNP 20 μM, room temperature, 4 days
[4] = tested on: human primary neutrophils and platelets; experiment: NPA formation between human neutrophils and platelets; assay type: cell-based
Experimental: as §1

[5] = tested on: LPS-induced lung inflammation; experiment: LPS-induced lung inflammation in mice; assay type: in vivo, mouse; conditions: TNP-treated mice, 5 mg/kg LPS intratracheal, 24 hr
Experimental: Bacteria or LPS-induced acute pneumonia. After anesthesia with ketamine hydrochloride (100 mg/kg intraperitoneally (i.p.)) and xylazine (10 mg/kg i.p.), mouse tracheas were surgically exposed and a total volume of 40 μl of saline, a dose of 2×10^6 cfu of E. coli (strain 19138; American Type Culture Collection), a dose of 5×10^8 cfu of Stapyhlococcus aureus (strain 10390; American Type Culture Collection), or the indicated amount of LPS (LPS from E. coli O111:B4 or LPS from E. coli O157:H7; Sigma-Aldrich was instilled intratracheally via an angiocatheter inserted through the trachea and into the left bronchus. Colloidal carbon (1%) was included in the instillate to indicate deposition. […]
Neutrophil accumulation. […] The total number of cells in the BALF was counted by hemocytometry. […] The percentage of neutrophils in the whole population (% PMN) was determined accordingly. Total numbers of neutrophils (#PMN) recruited was calculated as follows: [#PMN]=[cell density]×volume×[% PMN]. Emigrated neutrophils in the alveolar air spaces were also quantified by morphometric analysis of tissue sections. Emigrated neutrophils in lung sections (5 mice/group) 24 h after infection were quantified using standard point-counting morphometry (7). […] At least three grids (300 points) were counted for each lung. […]

[6] = tested on: neutrophil-platelet co-cultures; experiment: LPS-induced polyP secretion in neutrophil-platelet co-cultures; assay type: cell-based, mouse; conditions: cells from TNP-treated mice, LPS 5 μg/mL, 2 h, 37° C., vs DMSO-treated controls
Experimental: as §1

Molecule: LYS-BK
- NPA formation between IP6K1-deficient platelets and neutrophils ([1]; Lys-BK 1 μM together with HKa): could not restore NPA formation

Molecule: O=[N+]([O-])c1ccc(CNc2nc(NCc3cccc(C(F)(F)F)c3)nc3nc[nH]c23)cc1 [TNP, N2-(m-(trifluoromethyl)benzyl) N6-(p-nitrobenzyl)purine]
- PtdIns(3,4,5)P3-mediated cellular functions ([2]; mouse neutrophils treated with TNP): elevated
- PtdIns(3,4,5)P3 signaling, assessed by phospho-Akt ([2]; mouse neutrophils, TNP 20 mg/kg once a day for 10 days, bone marrow neutrophils): substantially enhanced; also recorded: elevated
- bactericidal activity (bacterial killing in inflamed lungs) (E. coli; TNP 20 mg/kg i.p. once a day for 10 days before E. coli instillation): much improved
- edema formation (E. coli; TNP-treated mice): less edema formation
- neutrophil accumulation in the inflamed lungs, BALF neutrophil counts (E. coli; TNP-treated mice): suppressed
- neutrophil accumulation in the inflamed lungs, morphometric analysis of lung sections (E. coli; TNP-treated mice): suppressed
- total BALF protein levels (E. coli; TNP-treated mice): decreased
- pulmonary vascular permeability by lung wet-to-dry ratio (E. coli; TNP-treated mice, 24 hr after E. coli instillation): reduction
- PtdIns(3,4,5)P3-mediated cellular functions [3]: elevated
- PtdIns(3,4,5)P3 signaling [3]: substantially enhanced
- intracellular polyP levels in platelets (platelets): reduced
- polyP levels in human platelets (human platelets): reduced
- NPA formation ([4]; TNP-treated neutrophils and untreated platelets): unaltered
- LPS-induced NPA formation ([4]; human primary neutrophils and platelets treated with TNP): suppressed
- LPS-induced ex vivo NPA formation ([1]; neutrophils and platelets from TNP-treated mice, LPS 1 μg/mL, 2 h): inhibited
- infection-induced NPA formation in the lungs of live mice [5]: inhibited
- LPS-elicited polyP secretion [6]: reduced

Molecule: HOE140
- LPS-induced NPA formation ([1]; neutrophils pretreated with HOE140 150 nM for 5 min): inhibited

B1: MIP2: a common proinflammatory cytokine (protein, UniProt P10889 28-100, looked up)
C-X-C motif chemokine 2: AVVASELRCQCLKTLPRVDFKNIQSLSVTPPGPHCAQTEVIATLKGGQKVCLDPEAPLVQKIIQKILNKGKAN
- NPA formation ([1]; MIP2 1 nM in place of LPS): failed to induce the same NPA formation

— US11357780B2, “Methods and compositions relating to the inhibition of IP6K1” (THE CHILDREN'S MEDICAL CENTER CORPORATION, priority 2018, dated 2022)
